From US12186304B2, “Method for treating cancer by combination of IAP inhibitor and modulator of immune checkpoint molecule” (ASCENTAGE PHARMA (SUZHOU) CO., LTD., priority 2018, dated 2025)

Legend:
[1] = Phase I study: APG-1387 pharmacokinetics in plasma (LC-MS/MS); type: in vivo, human
Experimental: APG-1387 was IV administered for 30 minutes once weekly in a 21-day-cycle.

[2] = tested on: spleen cells; experiment: Activation of spleen cells of healthy C57BL/6 mice in vivo; details: 0.05, 0.2 and 0.8 mg/kg i.p. qd x 7 doses
Experimental: Next, we intraperitoneally administered different dosages of APG-1387 to healthy C57BL/6 mice every day. Each group has 3 mice. After 7 days of continuous administration, the spleen was taken to obtain a single cell suspension. NK, macrophage, dendritic cells and T cells were analyzed by flow cytometry to obtain the proportion of these subsets, thus evaluate the effect of APG-1387 on each immune cell subpopulation.

[3] = Phase I study (NCT03386526): safety and tolerability
[4] = over the range of 20 to 45 mg, preliminary PK data

Compound: CN[C@@H](C)C(=O)N[C@H]1CN(S(=O)(=O)c2cccc(S(=O)(=O)N3CC[C@H]4CC[C@@H](C(=O)NC(c5ccccc5)c5ccccc5)N4C(=O)[C@@H](NC(=O)[C@H](C)NC)C3)c2)CC[C@H]2CC[C@@H](C(=O)NC(c3ccccc3)c3ccccc3)N2C1=O [APG-1387]
- increase in AUC [1, 4]: approximately dose proportional
- increase in Cmax [1, 4]: approximately dose proportional
- accumulation ([1]; weekly dosing regimen): no significant accumulation
- proportion of 9 types of immune cells in the spleen [2]: no effect
- G3 above TRAEs: G3 blood bilirubin increased ([3]; 60 mg monotherapy): one
- G3 above TRAEs: lipase increased ([3]; 60 mg monotherapy): one
- # of pts discontinued treatment: Adverse Event ([3]; APG-1387 20 mg): 0
- # of pts discontinued treatment: Clinical progression ([3]; APG-1387 20 mg): 0
- # of pts discontinued treatment: Disease progression ([3]; APG-1387 20 mg): 2
- # of pts discontinued treatment: Lack of efficacy ([3]; APG-1387 20 mg): 1
- TRAEs (all Grades): Aspartate aminotransferase increased, patients ([3]; APG-1387 20 mg): 0
- TRAEs (all Grades): Bell's palsy, patients ([3]; APG-1387 20 mg): 0
- TRAEs (all Grades): Blood bilirubin increased, patients ([3]; APG-1387 20 mg): 0
- TRAEs (all Grades): Decreased appetite, patients ([3]; APG-1387 20 mg): 0
- TRAEs (all Grades): Dehydration, patients ([3]; APG-1387 20 mg): 0
- TRAEs (all Grades): Diarrhoea, patients ([3]; APG-1387 20 mg): 0
- TRAEs (all Grades): Dyspepsia, patients ([3]; APG-1387 20 mg): 0
- TRAEs (all Grades): Eructation, patients ([3]; APG-1387 20 mg): 0
- TRAEs (all Grades): Fatigue, patients ([3]; APG-1387 20 mg): 0
- TRAEs (all Grades): Headache, patients ([3]; APG-1387 20 mg): 0
- TRAEs (all Grades): Lipase increased, patients ([3]; APG-1387 20 mg): 0
- TRAEs (all Grades): Myalgia, patients ([3]; APG-1387 20 mg): 0
- TRAEs (all Grades): Nausea, patients ([3]; APG-1387 20 mg): 0
- TRAEs (all Grades): Peripheral sensory neuropathy, patients ([3]; APG-1387 20 mg): 0
- TRAEs (all Grades): Phlebitis, % of patients ([3]; APG-1387 20 mg): (33.3%)
- TRAEs (all Grades): Phlebitis, patients ([3]; APG-1387 20 mg): 1
- TRAEs (all Grades): Pneumonitis, patients ([3]; APG-1387 20 mg): 0
- TRAEs (all Grades): Pruritus, % of patients ([3]; APG-1387 20 mg): (33.3%)
- TRAEs (all Grades): Pruritus, patients ([3]; APG-1387 20 mg): 1
- TRAEs (all Grades): Rash maculo-papular, % of patients ([3]; APG-1387 20 mg): (33.3%)
- TRAEs (all Grades): Rash maculo-papular, patients ([3]; APG-1387 20 mg): 1
- TRAEs (all Grades): Tumor pain, patients ([3]; APG-1387 20 mg): 0
- # of pts discontinued treatment: Adverse Event ([3]; APG-1387 30 mg): 0
- # of pts discontinued treatment: Clinical progression ([3]; APG-1387 30 mg): 0
- # of pts discontinued treatment: Disease progression ([3]; APG-1387 30 mg): 3
- # of pts discontinued treatment: Lack of efficacy ([3]; APG-1387 30 mg): 0
- TRAEs (all Grades): Aspartate aminotransferase increased, patients ([3]; APG-1387 30 mg): 0
- TRAEs (all Grades): Bell's palsy, patients ([3]; APG-1387 30 mg): 0
- TRAEs (all Grades): Blood bilirubin increased, patients ([3]; APG-1387 30 mg): 0
- TRAEs (all Grades): Decreased appetite, patients ([3]; APG-1387 30 mg): 0
- TRAEs (all Grades): Dehydration, patients ([3]; APG-1387 30 mg): 0
- TRAEs (all Grades): Diarrhoea, % of patients ([3]; APG-1387 30 mg): (33.3%)
- TRAEs (all Grades): Diarrhoea, patients ([3]; APG-1387 30 mg): 1
- TRAEs (all Grades): Dyspepsia, patients ([3]; APG-1387 30 mg): 0
- TRAEs (all Grades): Eructation, patients ([3]; APG-1387 30 mg): 0
- TRAEs (all Grades): Fatigue, patients ([3]; APG-1387 30 mg): 0
- TRAEs (all Grades): Headache, % of patients ([3]; APG-1387 30 mg): (33.3%)
- TRAEs (all Grades): Headache, patients ([3]; APG-1387 30 mg): 1
- TRAEs (all Grades): Lipase increased, patients ([3]; APG-1387 30 mg): 0
- TRAEs (all Grades): Myalgia, patients ([3]; APG-1387 30 mg): 0
- TRAEs (all Grades): Nausea, % of patients ([3]; APG-1387 30 mg): (33.3%)
- TRAEs (all Grades): Nausea, patients ([3]; APG-1387 30 mg): 1
- TRAEs (all Grades): Peripheral sensory neuropathy, patients ([3]; APG-1387 30 mg): 0
- TRAEs (all Grades): Phlebitis, patients ([3]; APG-1387 30 mg): 0
- TRAEs (all Grades): Pneumonitis, patients ([3]; APG-1387 30 mg): 0
- TRAEs (all Grades): Pruritus, patients ([3]; APG-1387 30 mg): 0
- TRAEs (all Grades): Rash maculo-papular, patients ([3]; APG-1387 30 mg): 0
- TRAEs (all Grades): Tumor pain, patients ([3]; APG-1387 30 mg): 0
- # of pts discontinued treatment: Adverse Event ([3]; APG-1387 45 mg): 1
- # of pts discontinued treatment: Clinical progression ([3]; APG-1387 45 mg): 1
- # of pts discontinued treatment: Disease progression ([3]; APG-1387 45 mg): 8
- # of pts discontinued treatment: Lack of efficacy ([3]; APG-1387 45 mg): 1
- TRAEs (all Grades): Aspartate aminotransferase increased, % of patients ([3]; APG-1387 45 mg): (7.7%)
- TRAEs (all Grades): Aspartate aminotransferase increased, patients ([3]; APG-1387 45 mg): 1
- TRAEs (all Grades): Bell's palsy, % of patients ([3]; APG-1387 45 mg): (7.7%)
- TRAEs (all Grades): Bell's palsy, patients ([3]; APG-1387 45 mg): 1
- TRAEs (all Grades): Blood bilirubin increased, patients ([3]; APG-1387 45 mg): 0
- TRAEs (all Grades): Decreased appetite, % of patients ([3]; APG-1387 45 mg): (15.4%)
- TRAEs (all Grades): Decreased appetite, patients ([3]; APG-1387 45 mg): 2
- TRAEs (all Grades): Dehydration, % of patients ([3]; APG-1387 45 mg): (7.7%)
- TRAEs (all Grades): Dehydration, patients ([3]; APG-1387 45 mg): 1
- TRAEs (all Grades): Diarrhoea, patients ([3]; APG-1387 45 mg): 0
- TRAEs (all Grades): Dyspepsia, % of patients ([3]; APG-1387 45 mg): (7.7%)
- TRAEs (all Grades): Dyspepsia, patients ([3]; APG-1387 45 mg): 1
- TRAEs (all Grades): Eructation, patients ([3]; APG-1387 45 mg): 0
- TRAEs (all Grades): Fatigue, % of patients ([3]; APG-1387 45 mg): (23.1%)
- TRAEs (all Grades): Fatigue, patients ([3]; APG-1387 45 mg): 3
- TRAEs (all Grades): Headache, patients ([3]; APG-1387 45 mg): 0
- TRAEs (all Grades): Lipase increased, patients ([3]; APG-1387 45 mg): 0
- TRAEs (all Grades): Myalgia, % of patients ([3]; APG-1387 45 mg): (7.7%)
- TRAEs (all Grades): Myalgia, patients ([3]; APG-1387 45 mg): 1
- TRAEs (all Grades): Nausea, % of patients ([3]; APG-1387 45 mg): (7.7%)
